Laboratory results taken from publication doi:10.1101/2025.03.13.643086, “Granzyme-targeting quenched activity-based probes for assessing tumor response to immunotherapy” (bioRxiv, 2025).

Assays:
[1] = tested on: GzmB activity in NK-92 cells; experiment: Flow cytometry analysis of protein labeling by ABPs in NK-92 and MDA-MB-231 cells; type: cell-based, human; settings: 5 μM
Protocol: Figure 3. GzmB ABPs selectively label active GzmB in cells. (A) Gel-based analysis of GzmB labeling by ABPs in NK-92 cells. 5x10^5 NK-92 cells were incubated with each ABP at varying concentrations for 2 h at 37 °C. After cell lysis, protein samples were analyzed by SDS-PAGE and in-gel fluorescence scanning for Cy5 signal. Expression of GzmB was confirmed by western blotting. (B) Gel-based analysis of GzmB labeling by qABP 10 in different cells. 2x10^6 NK-92, MDA-MB-231, Jurkat, and HEK cells were incubated with compound 10 (5 μM) at 37 °C for 2 h. After cell lysis, protein samples were analyzed by SDS-PAGE and in-gel fluorescence scanning for Cy5 signal. […] Protein samples were analyzed by SDS-PAGE and in-gel fluorescence scanning for Cy5 signal. […] Top: Histogram; Bottom: Mean fluorescence intensity (MFI) in MDA-MB-231 cells. […]
Histogram of flow cytometry data for NK-92 cells incubated with qABP 10. Right: Quantification of mean Cy5 fluorescence intensity. […]
(§1) 3-5 mice/group. For all studies, mice were monitored by daily observation and serial tumor measurements and body weights.
Mice were treated with 20 mg/kg BEC i.v., 10 mg/kg anti-PD1 i.p., 5 mg/kg anti-CTLA4 i.p. or a combination of 10 mg/kg anti-PD-1 and 5 mg/kg anti-CTLA4. […] On day 9 post-treatment, the mice were injected with 2 nmol/g GzmB qABP i.v., followed by fluorescence imaging at 2, 4, 8, and 24 h. […]

[2] = tested on: GzmB activity in 4T1 tumors; type: in vivo, mouse
Protocol: Figure 5. In vivo imaging of GzmB activity in mouse tumor models. (A) Schematic illustration of the timeline of immunotherapy and real-time NIRF-imaging. (B) Measurement of tumor growth comparing immunotherapy (ICB combination)-treated vs. untreated mice. Data points are shown as mean with SD. (C) Whole animal 2D fluorescence images of immunotherapy-treated mice obtained after 2, 4, 8 and 24 h post-injection at Ex/Em: 640/680 nm. […] (D) Quantification of in vivo NIRF signals in the tumors. […] (F) Quantification of ex vivo NIRF signals in the organs (normalized to spleen). […] (G) Immunoblotting analysis of GzmB expression in tumor homogenates. Briefly, pieces of tumors were transferred to a flask containing 1 mL RIPA lysis buffer on ice and constantly grinded for 2 min. Homogenates were collected by centrifugation and 20 μg of proteins were analyzed by SDS-PAGE and immunoblotting. (H) Representative confocal microscopy images of tumor sections stained with DAPI (blue) and CD8α (green)/GzmB (yellow) antibodies and Cy5 (red) detection. (I) Fraction (%) of CD8+ cells in the tumors analyzed by flow cytometry. (J) Mean fluorescence intensity (MFI) of Cy5 signals determined by flow cytometry after dissociated tumors were treated with 10 (5 μM) for 2 h at 37 °C.
as §1
Mice were treated with 20 mg/kg BEC i.v., 10 mg/kg anti-PD1 i.p., 5 mg/kg anti-CTLA4 i.p. or a combination of 10 mg/kg anti-PD-1 and 5 mg/kg anti-CTLA4. All the treatments were administered into living mice bearing 4T1 tumor every three days for three times (q3dx3). Dosing was administered at 0.01 ml/g body weight. On day 9 post-treatment, the mice were injected with 2 nmol/g GzmB qABP i.v., followed by fluorescence imaging at 2, 4, 8, and 24 h. Following the last imaging time point, mice were euthanized, and tissues were collected for ex vivo imaging.
E. In vivo and ex vivo fluorescence imaging (FLI)
All fluorescence imaging (FLI) were performed using Xenogen IVIS Spectrum (Revvity Health Sciences, Inc., Hopkinton, Massachusetts), which was previously owned by PerkinElmer. Prior to in vivo or ex vivo FLI, quality control of the IVIS system was performed with XFM-2X fluorescent phantom mouse (Revvity Health Sciences, Inc., Hopkinton, Massachusetts). The total radiant efficiency of AF680 phantom was 1.44 x 109 ± 5.7 x 107 at 40% threshold for the entire study.
Both in vivo and ex vivo FLI of mice including dye phantom was performed with Ex/Em: 640/680 nm. The wavelength difference between excitation and emission was large enough to prevent signal contamination by mixing. The maximum exposure time was fixed at 120 seconds to avoid background noise. In vivo imaging used 8 binning, 2 f-stop, and 1.5 cm sample height, whereas ex vivo imaging used 8 binning, 2–4 f-stop, and 0.5 cm sample height. The quantified data are presented as radiant efficiency or normalized radiant efficiency by area. […]
Fixed/Permeabilized […]
cells were resuspended 100 µL 1x intracellular staining perm wash buffer and incubated with FITC-conjugated CD8 antibody (BioLegend #100706) at 0 °C for 1 h. After centrifugation, cell pellets were washed with 1x intracellular staining perm wash buffer (twice) and resuspended in the appropriate amount of cell staining buffer (BioLegend # 420201) and analyzed with flow […]

Structure (SMILES): CC[C@H](C)[C@H](NC(=O)CCCCCN1/C(=C/C=C/C=C/C2=[N+](CC)c3ccc(S(=O)(=O)O)cc3C2(C)C)C(C)(C)c2cc(S(=O)(=O)O)ccc21)C(=O)N[C@@H](CCC(=O)O)C(=O)N1CCC[C@H]1C(=O)NC(CS(=O)(=O)O)P(=O)(Oc1ccc(CCNC(=O)C2CCN(S(=O)(=O)c3ccccc3-c3c4ccc(=[N+]5CCc6ccccc65)cc-4oc4cc(N5CCc6ccccc65)ccc34)CC2)cc1)c1ccccc1 (stereo partly shown) [Compound 10, Cy5-IEPCya^PhP-QSY21]
- fluorescence intensity in NK-92 cells relative to GzmB non-expressing MDA-MB-231 cells [1]: approximately 9.1 fold
- signal-to-noise (S/N), NK-92 vs MDA-MB-231 cells ([1]; 37 °C, 2 h): 9.09
- in vivo NIRF signal at 2 h, mouse #61 (brightest) ([2]; 12.5 nmol/100 μL i.v., 2 h post-injection, ICB combination-treated mouse): 7.26x10^9 p s^−1 cm^−2 sr^−1
- time post-injection of brightest NIRF signal within tumors ([2]; 50 nmol i.v., imaged at 2, 4, 8 and 24 h): 2 h
- tumor-to-background ratio (TBR), ex vivo, normalized to spleen, mouse #57 ([2]; 50 nmol i.v., organs harvested 24 h post-injection): 15.18
- in vivo fluorescence signal in tumor at 2 h, mouse #57 (highest) ([2]; 50 nmol/100 μL i.v., 2 h post-injection, ICB combination-treated mouse): 4.02x10^10 p s^−1 cm^−2 sr^−1
- clearance route of excess probe ([2]; second highest signals in bladder (2 h in vivo) and kidneys (24 h ex vivo)): cleared through the renal pathway
